Experimental data published in paper PMC2362229 (British Journal of Cancer, 1999).

Key:
[1] = biological target: T1, rat P-gp (145 kDa protein) (Rattus norvegicus, UniProt P43245); experiment: Photoaffinity labelling with [3H]azidopine, rat canalicular membranes; assay type: binding
T1 construct: Membrane fractions enriched in the hepatocyte canalicular membrane domain were prepared and characterized from rat and human liver; from tissue; host or cells: rat liver canalicular membrane vesicles

MDR1 P-glycoprotein = experiment: in vitro; conditions: Wistar (rat), human
Mdr1 P-gp [2] = biological target: T2, Mdr1 P-gp (Rattus norvegicus, UniProt P43245); experiment: ATP-dependent [14C]doxorubicin transport in rat hepatocyte canalicular membrane vesicles; assay type: biochemical; conditions: read-out: half-maximal inhibition of [14C]doxorubicin transport (IC50)
T2 construct: Membrane fractions enriched in the hepatocyte canalicular membrane domain were prepared and characterized from rat and human liver; from tissue; host or cells: rat liver canalicular membrane vesicles
T2 sequence (P43245 whole entry, the tested form may be a part): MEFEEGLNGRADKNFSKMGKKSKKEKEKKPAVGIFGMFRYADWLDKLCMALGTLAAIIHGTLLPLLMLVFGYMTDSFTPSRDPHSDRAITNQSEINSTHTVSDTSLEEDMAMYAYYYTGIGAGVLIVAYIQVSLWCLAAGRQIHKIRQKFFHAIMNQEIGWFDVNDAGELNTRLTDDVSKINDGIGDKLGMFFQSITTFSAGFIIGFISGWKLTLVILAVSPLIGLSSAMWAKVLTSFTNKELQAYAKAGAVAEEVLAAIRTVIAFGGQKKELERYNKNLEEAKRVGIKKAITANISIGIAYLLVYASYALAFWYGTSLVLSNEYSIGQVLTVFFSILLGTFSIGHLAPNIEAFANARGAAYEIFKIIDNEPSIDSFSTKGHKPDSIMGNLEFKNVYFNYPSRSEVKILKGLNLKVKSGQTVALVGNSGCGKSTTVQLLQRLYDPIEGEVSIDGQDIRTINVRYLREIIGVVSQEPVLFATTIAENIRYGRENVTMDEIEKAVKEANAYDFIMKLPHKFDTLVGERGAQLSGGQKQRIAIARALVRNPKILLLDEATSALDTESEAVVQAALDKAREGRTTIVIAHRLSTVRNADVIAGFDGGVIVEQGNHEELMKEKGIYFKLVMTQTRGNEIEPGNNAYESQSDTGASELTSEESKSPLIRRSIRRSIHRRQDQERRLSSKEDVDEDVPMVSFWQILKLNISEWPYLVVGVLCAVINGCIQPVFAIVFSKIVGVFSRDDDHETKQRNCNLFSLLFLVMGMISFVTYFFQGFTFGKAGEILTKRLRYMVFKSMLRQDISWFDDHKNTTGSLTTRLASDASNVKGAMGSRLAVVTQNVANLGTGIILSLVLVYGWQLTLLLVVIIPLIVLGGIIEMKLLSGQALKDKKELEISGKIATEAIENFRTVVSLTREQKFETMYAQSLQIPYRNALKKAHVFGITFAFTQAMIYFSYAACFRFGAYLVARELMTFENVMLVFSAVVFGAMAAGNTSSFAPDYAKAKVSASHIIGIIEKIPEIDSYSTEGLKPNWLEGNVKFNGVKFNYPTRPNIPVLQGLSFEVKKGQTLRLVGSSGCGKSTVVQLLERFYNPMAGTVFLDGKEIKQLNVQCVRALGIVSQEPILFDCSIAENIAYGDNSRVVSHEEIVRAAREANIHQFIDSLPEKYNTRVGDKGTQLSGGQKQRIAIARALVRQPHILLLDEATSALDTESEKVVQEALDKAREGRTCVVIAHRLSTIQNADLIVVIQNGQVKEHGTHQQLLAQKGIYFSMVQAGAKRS

[3] = biological target: T3, conjugate export pump MRP2 (Rattus norvegicus, UniProt Q63120); experiment: In vivo elimination of N-[3H]acetyl-LTE4 into bile; conditions: GG918 4 mol kg1
T3 construct: Membrane fractions enriched in the hepatocyte canalicular membrane domain were prepared and characterized from rat and human liver; from tissue; host or cells: liver of male Wistar rats: canalicular membrane vesicles (A7) or the liver in vivo (A12)

[4] = biological target: T3, conjugate export pump MRP2; experiment: ATP-dependent [3H]LTC4 transport in rat hepatocyte canalicular membrane vesicles; assay type: biochemical; conditions: LTC4 50 nM; not significantly inhibited up to 20 µM
[5] = biological target: T4, bile salt export pump (BSEP) (Rattus norvegicus, UniProt O70127); experiment: ATP-dependent [3H]taurocholate transport in rat hepatocyte canalicular membrane vesicles; assay type: biochemical; conditions: TC 5 M; 0.5% fetal calf serum; read-out: inhibition by 50% of ATP-dependent BSEP, [3H]taurocholate as substrate (IC50)
T4 construct: Membrane fractions enriched in the hepatocyte canalicular membrane domain were prepared and characterized from rat and human liver; from tissue; host or cells: liver of male Wistar rats: canalicular membrane vesicles (A8) or the liver in vivo (A13)
T4 sequence (O70127 1-1321): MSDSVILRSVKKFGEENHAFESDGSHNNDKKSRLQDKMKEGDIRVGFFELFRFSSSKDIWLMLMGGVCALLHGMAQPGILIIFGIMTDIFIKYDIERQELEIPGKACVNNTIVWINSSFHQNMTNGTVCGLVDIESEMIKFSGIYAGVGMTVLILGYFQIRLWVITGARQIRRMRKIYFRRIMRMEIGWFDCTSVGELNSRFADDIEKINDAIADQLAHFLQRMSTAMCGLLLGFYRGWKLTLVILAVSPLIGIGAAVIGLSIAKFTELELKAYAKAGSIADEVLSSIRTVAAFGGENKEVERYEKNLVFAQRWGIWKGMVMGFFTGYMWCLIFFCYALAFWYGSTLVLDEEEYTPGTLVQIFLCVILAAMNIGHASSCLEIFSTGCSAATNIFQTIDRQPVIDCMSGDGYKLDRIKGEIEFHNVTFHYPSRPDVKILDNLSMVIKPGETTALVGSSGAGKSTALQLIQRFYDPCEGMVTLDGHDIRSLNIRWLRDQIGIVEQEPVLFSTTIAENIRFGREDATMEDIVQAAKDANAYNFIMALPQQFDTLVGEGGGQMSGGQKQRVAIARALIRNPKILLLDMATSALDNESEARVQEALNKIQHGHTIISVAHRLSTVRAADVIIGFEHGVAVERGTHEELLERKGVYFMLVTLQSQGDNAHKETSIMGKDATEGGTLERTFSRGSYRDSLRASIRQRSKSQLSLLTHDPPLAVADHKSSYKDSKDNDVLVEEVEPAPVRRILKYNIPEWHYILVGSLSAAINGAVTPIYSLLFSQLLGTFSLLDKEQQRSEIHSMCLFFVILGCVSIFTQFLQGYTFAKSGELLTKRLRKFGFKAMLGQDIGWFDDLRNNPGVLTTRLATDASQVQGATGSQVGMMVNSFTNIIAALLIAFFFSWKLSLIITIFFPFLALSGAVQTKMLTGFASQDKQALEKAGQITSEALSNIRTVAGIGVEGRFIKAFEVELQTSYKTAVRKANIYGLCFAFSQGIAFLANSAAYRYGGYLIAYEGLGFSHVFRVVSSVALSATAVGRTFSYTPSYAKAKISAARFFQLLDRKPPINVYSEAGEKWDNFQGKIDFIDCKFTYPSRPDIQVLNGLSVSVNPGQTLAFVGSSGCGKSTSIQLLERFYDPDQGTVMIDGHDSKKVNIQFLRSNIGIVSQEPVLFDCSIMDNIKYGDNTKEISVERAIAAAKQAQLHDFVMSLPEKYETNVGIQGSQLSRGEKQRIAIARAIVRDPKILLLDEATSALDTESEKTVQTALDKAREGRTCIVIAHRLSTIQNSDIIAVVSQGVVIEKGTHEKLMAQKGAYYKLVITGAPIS

[6] = Bile flow in bile duct-cannulated rats; assay type: in vivo, rat; conditions: GG918 4 mol kg1 body weight i.v.
Mdr1b P-gp [7] = biological target: T5, Mdr1b P-gp (Rattus norvegicus, UniProt P43245); experiment: ATP-dependent [3H]daunorubicin transport into rat hepatocyte canalicular membrane vesicles
T5 sequence (P43245 whole entry): as the sequence (P43245 whole entry, the tested form may be a part) above

BSEP = biological target: T6, BSEP (Rattus norvegicus, UniProt O70127); experiment: In vivo elimination of [3H]taurocholate into bile; conditions: GG918 4 mol kg1 body weight
T6 construct: Membrane fractions enriched in the hepatocyte canalicular membrane domain were prepared and characterized from rat and human liver; from tissue; host or cells: liver of male Wistar rats: canalicular membrane vesicles (A8) or the liver in vivo (A13)
T6 sequence (O70127 1-1321): T4 sequence (O70127 1-1321)

Mdr1b P-gp [8] = biological target: T5, Mdr1b P-gp; experiment: In vivo elimination of [14C]doxorubicin into bile; set-up: from tissue; host or cells: liver of male Wistar rats: the liver in the living animal (A10, A11); conditions: GG918 14 mol kg1; 60 min
[9] = biological target: T7, recombinant rat Mdr1b P-gp (Rattus norvegicus, UniProt P43245); experiment: Photoaffinity labelling with [3H]azidopine, membranes of recombinant mdr1b-BV-infected Sf9 cells; assay type: binding; conditions: […] GG918
T7 construct: made in house; host or cells: Sf9 insect cells, recombinant baculovirus (mdr1b-BV)
T7 sequence (P43245 whole entry): as the sequence (P43245 whole entry, the tested form may be a part) above

Mdr1 P-gp [10] = biological target: T2, Mdr1 P-gp; experiment: ATP-dependent N-pentyl-[3H]quinidinium transport in rat hepatocyte canalicular membrane vesicles; assay type: biochemical

T1 sequence (P43245 whole entry, the tested form may be a part): as the sequence (P43245 whole entry, the tested form may be a part) above

| Compound | reduction of [3H]azidopine labelling of rat P-gp ([1]; 40 µM GG918) | reduction of [3H]azidopine labelling of rat P-gp ([1]; 10 M GG918) | concentration for potent competition with [3H]azidopine photoaffinity labelling versus concentration for potent inhibition of substrate transport by Mdr1b P-gp ([1]; fold higher) | IC50 (MDR1 P-glycoprotein) | IC50 (Mdr1 P-gp [2]) | inhibition of N-[3H]acetyl-LTE4 secretion [3] | IC50 [4] | IC50 [5] | bile flow [6] | Ki (Mdr1b P-gp [7]) | IC50 (Mdr1b P-gp [7]; IC50 Dau (Figure 7), DAU 20 M, Figure 7 inset) | IC50 (Mdr1b P-gp [7]; half-maximal inhibition of [3H]daunorubicin transport, [3H]daunorubicin 20 M, 0.5% fetal calf serum) | manner of inhibition of [3H]daunorubicin transport (Mdr1b P-gp [7]; rat canalicular inside-out vesicles, 30 nM GG918) | effect on biliary excretion of [3H]taurocholate (BSEP) | [14C]doxorubicin elimination suppressed to (% of untreated) (Mdr1b P-gp [8]) | reduction of [3H]azidopine incorporation into the Mdr1b protein [9] | suppression of ATP-dependent transport of N-pentyl-[3H]quinidinium (Mdr1 P-gp [10]; 10 nM GG918) | suppression of ATP-dependent transport of N-pentyl-[3H]quinidinium (Mdr1 P-gp [10]; 100 nM GG918) | IC50 (Mdr1 P-gp [10]; rat hepatocyte canalicular membranes, substrate 1 M, read-out: half-maximal inhibition of N-pentyl-[3H]quinidinium transport (IC50)) | Vmax of ATP-dependent daunorubicin transport (Mdr1b P-gp [7]; Lineweaver-Burk plots, rat canalicular vesicles) |
| --- | --- | --- | --- | --- | --- | --- | --- | --- | --- | --- | --- | --- | --- | --- | --- | --- | --- | --- | --- | --- |
| COc1cc2c(cc1OC)CN(CCc1ccc(NC(=O)c3cccc4c(=O)c5cccc(OC)c5[nH]c34)cc1)CC2 [GG918, N-{4-[2-(1,2,3,4-tetrahydro-6,7-dimethoxy-2-isoquinolinyl)-ethyl]-phenyl}-9,10-dihydro-5-methoxy-9-oxo-4-acridine carboxamide] | 78% | 38% | at least 100 fold | 8 to 80 nM | 80 nM | No significant inhibition | > 20 µM | ~3 µM | not affected | 35 nM | 20 nM | ~20 nM | competitive | did not affect | 27% | 80% | 42% | 98% | 8 nM |  |
| COc1cccc2c1C(=O)c1c(O)c3c(c(O)c1C2=O)C[C@@](O)(C(C)=O)C[C@@H]3O[C@H]1C[C@H](N)[C@H](O)[C@H](C)O1 [daunorubicin] |  |  |  |  |  |  |  |  |  |  |  |  |  |  |  |  |  |  |  | 721 pmol mg1 min1 |
